US10842874B2, “Sensitization of bacterial cells to quinolone antibiotics” (Massachusetts Institute of Technology, priority 2017, dated 2020)
Converted amounts (≈) assume the structure as drawn.

Columns and labels:
[1] = tested on: E. coli K12 strain MG1655 stationary phase cells; experiment: Potentiation assays on stationary phase cultures (metabolites / oxygen plus antibiotic, CFU/mL); format: cell-based, Escherichia coli; conditions: for killing of stationary phase E. coli with glucose-fumarate supplementation: different antibiotic concentrations
[2] = tested on: M. smegmatis; conditions: exponentially growing cultures (1% maximal density)
[3] = tested on: S. aureus; conditions: exponentially growing cultures (1% maximal density)
[4] = tested on: M. smegmatis; experiment: Minimum inhibitory concentration (MIC); format: cell-based, Mycobacterium smegmatis; conditions: Mycolicibacterium smegmatis
[5] = tested on: E. coli K12 strain MG1655; format: cell-based, Escherichia coli
Protocol: At each time point, cells were also serially diluted in PBS and plated on LB agar plates to determine the CFU/mL at the time of treatment. Time points were taken until cells reached maximum carrying capacity. After 24 hours of treatment, 100 μl of cells from each tube was spun down and re-suspended in PBS on a 96-well plate. Cells were then serially diluted and plated on LB agar plates. The CFU/mL at treatment was normalized by the CFU/mL of stationary phase cells (% max CFU/ml).
An overnight culture of E. coli was diluted 1/10, 1/100, 1/1000, and 1/10000 in non-baffled flasks. […] Cells were spun down and re-suspended in PBS, diluted and plated on LB agar plates to determine CFU/ml.

[6] = tested on: M. smegmatis strain mc^2 155; experiment: Potentiation assay, glucose-fumarate sensitization of stationary phase culture; format: cell-based, Mycobacterium smegmatis; conditions: aerated stationary phase; 0.4% fumarate and/or 0.4% glucose
[7] = MOPS rich media, shaking, 1 μg/mL ciprofloxacin

With `C[S+](C)[O-]` [DMSO] as the compound, how does the “sensitization of stationary phase cultures to ciprofloxacin by the supplement alone” value (“sensitization … by the supplement alone” below) [1, 7] read?
Its value is “none of these electron acceptors alone was able to sensitize cells”.

For `CC1(C)S[C@@H]2[C@H](NC(=O)[C@H](N)c3ccccc3)C(=O)N2[C@H]1C(=O)O` [ampicillin], which “killing of stationary phase E. coli with glucose-fumarate supplementation” value [1] is on record?
The value was “did not kill stationary phase cells”.

With `O=C(O)c1cn(C2CC2)c2cc(N3CCNCC3)c(F)cc2c1=O` [ciprofloxacin] as the compound, how does the “number of viable cells at higher doses” value [2] read?
The value was “below the limit of detection”.

And the “number of viable cells at higher doses” value [3]?
Its value is “below the limit of detection”.

And the MIC [4]?
The MIC was 0.5 µg/mL (≈ 1.51 µM).

And the “killing at 1 μg/mL (100xMIC)” value ([5]; 1 μg/mL ciprofloxacin, low and intermediate cell density)?
Its value is “maximal killing at low cell density”.

And the “ability to kill the high-density cell population (DDP)” value ([5]; dose 1000x the MIC, treatment time 24 hours)?
Its value is “inability of ciprofloxacin to kill a fraction of the cell population”.

And the “reduction in persister cells of ΔrelAspoT mutant compared to wildtype” value ([5]; stationary phase, 1 μg/mL ciprofloxacin, ppGpp0 strain)?
Its value is 5.5 fold.

What about the “susceptibility of quinolone hypersensitive mutant recB” value ([5]; ΔrecB mutant, stationary phase) of the same compound?
Its value is “hypersensitive in stationary phase”.

With `O=C(O)/C=C/C(=O)O` [fumarate] as the compound, how does the “sensitization of stationary phase cultures to ciprofloxacin” value [6] read?
The value was “weakly”.

And the “sensitization … by the supplement alone” value [1, 7]?
The value was “none of these electron acceptors alone was able to sensitize cells”.

What about the “sensitization of high-density cultures to ciprofloxacin by electron acceptor in combination with glucose” value ([1]; MOPS rich media, shaking, 1 μg/mL ciprofloxacin, with glucose) of the same compound?
Its value is “synergistically sensitized”.

`O=[N+]([O-])[O-].[K+]` [nitrate, potassium nitrate] was tested. Which “sensitization … by the supplement alone” value [1, 7] did it give?
The value was “none of these electron acceptors alone was able to sensitize cells”.

For `O=O` [oxygen], which “susceptibility of stationary phase E. coli to ciprofloxacin with supplementation” value ([1]; static stationary phase culture, 0.4% glucose, bubbled air, oxygen tension 5-6%, 1 μg/mL ciprofloxacin) is on record?
Its value is “minimal effect”.

gentamicin was tested. Which “killing of stationary phase E. coli with glucose-fumarate supplementation” value [1] did it give?
Its value is “sensitized”.
